Experimental data reported in article PMC12638514, “Identification of Novel β‐Lactam Derivatives as Proteasome Inhibitors for Antitumor Therapy” (Archiv Der Pharmazie, 2025).

Legend:
[1] = test system: rabbit 20S proteasome β5 (CT‐L); parameters: method as in PMID 24452398, PMID 21946808; settings: Figure 2; cited from earlier work
MV‐4‐11 cells = assay: Cell proliferation inhibition assay (CCK8), MV‐4‐11; type: cell-based; settings: Homo sapiens, MV4-11, 72 h, mean ± SD
Method: (§1) MV‐4‐11 cells (1 × 10^4 cells/well), RPMI‐8226 cells (8 × 10^3 cells/well), Molt4 cells (2 × 10^3 cells/well), RS4;11 cells (2 × 10^4 cells/well), and PBMC cells (2 × 10^4 cells/well) were seeded in 96‐well plates (Corning, 3599). Cells were treated with either 0.2% DMSO or fivefold dilutions of compounds from 10 mM stock solutions in DMSO (0.2% final concentration of DMSO) for 72 h. 10 μL of CCK8 reagent was added to each well, and the plates were incubated at 37°C for 3 h. Absorbance was measured at 450 nm and 650 nm using a Spectra Max Molecular Devices microplate reader. The final data were calibrated by OD450 nm‐OD650 nm.

RPMI‐8226 cells = assay: Cell proliferation inhibition assay (CCK8), RPMI‐8226; type: cell-based; settings: Homo sapiens, 72 h, mean ± SD
Method: as §1

Molt4 cells = assay: Cell proliferation inhibition assay (CCK8), Molt4; type: cell-based; settings: Homo sapiens, MOLT-4, 72 h, mean ± SD
Method: as §1

RS4;11 cells [2] = assay: Cell proliferation inhibition assay (CCK8), RS4;11; type: cell-based, human; settings: mean ± SD
Method: as §1

[3] = test system: normal peripheral blood mononuclear cells (PBMC); assay: Cell proliferation inhibition assay (CCK8), PBMC; type: cell-based; settings: 72 h, mean ± SD, read-out: IC50 PBMC‐3Day
Method: as §1

[4] = biological target: T1, human constitutive proteasome, β5 subunit (CT‐L) (Homo sapiens, UniProt P20618+P28074); assay: In vitro 20S proteasome chymotrypsin‐like (CT‐L, β5) inhibition assay; type: biochemical; settings: CT‐L activity, substrate Suc‐LLVY‐AMC; mean ± SD of three independent experiments
T1 construct: gift of Dr. Jiang-ping Wu (Notre-Dame Hospital, Montreal)
Method: (§2) The human constitutive proteasome was generously provided by Dr. Jiang‐ping Wu (Notre‐Dame Hospital, Montreal, QC, Canada). […] The proteasome activity assay was performed in a total volume of 50 μL, with all samples diluted in Tris–HCl buffer (100 mM Tris–HCl, pH 8.0). […] 10 μL purified human proteasome (25 μg/mL) was added to 1 μL of each compound; after incubation for 15 min, the mixture was combined with 39 μL of the fluorogenic substrate. […] The IC50 values were calculated using the software GraphPad Prism4, employing the “sigmoidal dose–response (variable slope)” equation for curve fitting.

[5] = biological target: proteasome β1 subunit (C‐L) (Homo sapiens, UniProt P28072+Q99436); assay: Proteasome caspase‐like (C‐L, β1) inhibition; type: biochemical; settings: C‐L activity; mean ± SD of three independent experiments
Method: as §2

[6] = biological target: proteasome β2 subunit (T‐L) (Homo sapiens, UniProt P49720+Q99436); assay: Proteasome trypsin‐like (T‐L, β2) inhibition; type: biochemical; settings: T‐L activity; mean ± SD of three independent experiments
Method: as §2

RS4;11 cells [7] = assay: Apoptosis assay by flow cytometry; type: cell-based, human; settings: 1, 2 and 4 μM, 12 h
Method: (§3) Apoptosis was assessed using an Annexin V‐APC/7AAD apoptosis detection kit (GA1023‐KGA1026, Keygentec, Nanjing, China), followed by flow cytometry analysis. Briefly, cells were treated with the indicated drug concentration and durations or left untreated, then washed twice with PBS, stained with Annexin V‐APC/7AAD, and analyzed using flow cytometry (CytoFLEX flow cytometer, Beckman Coulter Inc.). RS4;11 cells were exposed to various concentrations of the compound or DMSO. Protein lysates were prepared using 4 × Laemmli sample buffer (161073, BIORAD, Richmond, USA). Protein samples were separated by SDS‐polyacrylamide gel electrophoresis (BIO‐RAD, Richmond, USA) and subsequently transferred to nitrocellulose (NC) membranes. Following a 90‐min blocking step with 5% skim milk at room temperature, the NC membranes were incubated with the primary antibody at 4 °C overnight, followed by three washes with TBST for 10 min each. The NC membranes were then incubated with secondary antibodies for 1.5 h at room temperature. Signals were detected by ECL (KF8001&KF8003, Affinity, China) using the BIO‐RAD ChemiDoc Touch Imaging System.

RS4;11 cells [8] = assay: Western blot of apoptosis‐related and ubiquitinated proteins; type: cell-based, human
Method: as §3

SMILES	IC50 (MV‐4‐11 cells) [nM]	IC50 (RPMI‐8226 cells) [nM]	IC50 (Molt4 cells) [nM]	IC50 (RS4;11 cells [2]; Homo sapiens, RS4-11, 72 h) [nM]	IC50 [4] [nM]	IC50 [5] [nM]	IC50 [6] [nM]	other results
CC[C@H](C)[C@@H]1C(=O)O[C@H]1C(=O)NCCC[C@H](NC(=O)[C@H](C)N)C(=O)O [Belactosin C]								IC50 [1]: 210 nM
CC(C)C[C@H](NC(=O)[C@H](Cc1ccccc1)NC(=O)c1cnccn1)B(O)O [Bortezomib, reference compound]	5.15 ± 1.09	3.64 ± 0.52	13.3 ± 2.47	5.87 ± 0.93				IC50 [3]: 1.57 ± 0.19 nM
CC(C)(C)CNC(=O)C[C@H](NC(=O)c1cnccn1)C(=O)N[C@@H](CCc1ccccc1)C(=O)N[C@@H]1CN(c2ccc(F)cc2)C1=O [Compound 68]					> 10000			
CC(C)(C)CNC(=O)C[C@H](NC(=O)c1cnccn1)C(=O)N[C@@H](CCc1ccccc1)C(=O)N[C@H]1CN(c2ccc(F)cc2)C1=O [Compound 69]	> 20000	10200 ± 760	> 10000	1520 ± 670	288 ± 57.2	> 10000	> 10000	
C[C@H](NC(=O)c1cccnc1)C(=O)N[C@@H](CCc1ccccc1)C(=O)N[C@@H]1CN(c2ccc(F)cc2)C1=O [Compound 70]					> 10000			
C[C@H](NC(=O)c1cnccn1)C(=O)N[C@@H](CCc1ccccc1)C(=O)N[C@@H]1CN(c2ccc(F)cc2)C1=O [Compound 71]					> 10000			
CC(C)[C@H](NC(=O)c1cccnc1)C(=O)N[C@@H](CCc1ccccc1)C(=O)N[C@@H]1CN(c2ccc(F)cc2)C1=O [Compound 72]					> 10000			
O=C(N[C@@H](CCc1ccccc1)C(=O)N[C@@H](CCc1ccccc1)C(=O)N[C@@H]1CN(c2ccc(F)cc2)C1=O)c1cccnc1 [Compound 73]					> 10000			
O=C(N[C@@H](Cc1ccccc1)C(=O)N[C@@H](CCc1ccccc1)C(=O)N[C@@H]1CN(c2ccc(F)cc2)C1=O)c1cccnc1 [Compound 74]					> 10000			
CSCC[C@H](NC(=O)c1cccnc1)C(=O)N[C@@H](CCc1ccccc1)C(=O)N[C@@H]1CN(c2ccc(F)cc2)C1=O [Compound 75]					> 10000			
Cc1ccc(N2C[C@@H](NC(=O)[C@H](CCc3ccccc3)NC(=O)[C@H](CC(=O)NCC(C)(C)C)NC(=O)c3cccnc3)C2=O)cc1 [Compound 76, (S)‐N ^4‐Neopentyl‐2‐(nicotinamido)‐N ^1‐[(S)‐1‐oxo‐1‐{[(R)‐2‐oxo‐1‐(p‐tolyl)azetidin‐3‐yl]amino}‐4‐phenylbutan‐2‐yl]succinamide]	> 20000	8050 ± 1170	> 10000	860 ± 240	72 ± 14.9	> 10000	> 10000	
CN(C)c1ccc(N2C[C@@H](NC(=O)[C@H](CCc3ccccc3)NC(=O)[C@H](CC(=O)NCC(C)(C)C)NC(=O)c3cccnc3)C2=O)cc1 [Compound 77, (S)‐N ^1‐[(S)‐1‐{[(R)‐1‐[4‐(Dimethylamino)phenyl]‐2‐oxoazetidin‐3‐yl]amino}‐1‐oxo‐4‐phenylbutan‐2‐yl]‐N ^4‐neopentyl‐2‐(nicotinamido)succinamide]					132 ± 14.8	> 10000	> 10000	
COc1ccc(N2CC(NC(=O)C(CCc3ccccc3)NC(=O)C(CC(=O)NCC(C)(C)C)NC(=O)c3cccnc3)C2=O)cc1 [Compound 78, (S)‐N ^1‐[(S)‐1‐{[(R)‐1‐(4‐Methoxyphenyl)‐2‐oxoazetidin‐3‐yl]amino}‐1‐oxo‐4‐phenylbutan‐2‐yl]‐N ^4‐neopentyl‐2‐(nicotinamido)succinimide]	2780 ± 410	2340 ± 340	3780 ± 270	< 1000	142 ± 30.1	> 10000	> 10000	IC50 (RS4;11 cells [2]; 72 h): 500 ± 130 nM; IC50 [3]: 17200 ± 1930 nM; induction of apoptosis in RS4;11 cells (RS4;11 cells [7]): triggered cell apoptosis in a dose‐dependent manner; activation and cleavage of caspase‐3 and PARP (RS4;11 cells [8]; RS4;11, 1, 2 and 4 μM, 8 h, western blot): detectable across all samples; accumulation of poly‐ubiquitinated proteins (RS4;11 cells [8]; RS4;11, western blot): significant accumulation of poly‐ubiquitinated proteins
CC(C)(C)CNC(=O)C[C@H](NC(=O)c1cccnc1)C(=O)N[C@@H](CCc1ccccc1)C(=O)N[C@@H]1CN(c2ccc(C(F)(F)F)cc2)C1=O [Compound 79, (S)‐N ^4‐Neopentyl‐2‐(nicotinamido)‐N ^1‐[(S)‐1‐oxo‐1‐{[(R)‐2‐oxo‐1‐[4‐(trifluoromethyl)phenyl]azetidin‐3‐yl]amino}‐4‐phenylbutan‐2‐yl]succinamide]	2750 ± 460	3440 ± 440	2370 ± 230	990 ± 170	282 ± 33.6	> 10000	> 10000	
